Values joined by “and” are separate entries in the source; they are usually repeats but may differ in a detail not shown here. Identical values can stand only once. Like-named read-outs stand apart in the source and are kept apart here.
Legend:
[1] = test system: wild type Chaetomium (CtL) laccase; assay type: biochemical, Chaetomium thermophilum; settings: pH 5
[2] = test system: wild type Thielavia (TaLcc) laccase; assay type: biochemical, Thielavia arenaria; settings: pH 5
[3] = test system: CtLcc1; assay type: biochemical, Chaetomium thermophilum
Description: (§1) The inhibition effect of different compounds on the activity of the laccases was determined as described in Example 2. except with Talcc4, with which the inhibition was analyzed using spectroscopic activity assay.

[4] = test system: TaLcc2; assay type: biochemical, Thielavia arenaria
Description: as §1

[5] = test system: TaLcc1; assay type: biochemical, Thielavia arenaria
Description: as §1

[6] = test system: Chaetomium thermophilum ALKO4265 laccase, purified wild type (CtL; CtLcc1); assay type: biochemical; settings: pH 5
[7] = test system: Thielavia arenaria ALKO4197 laccase TaLcc4, recombinant, SEQ ID NO: 45; assay type: biochemical
Description: as §1

[8] = biological target: T1, Thielavia arenaria ALKO4197 laccase TaLcc1, recombinant, SEQ ID NO: 39 (Canariomyces arenarius, UniProt F6N9E7); assay: biochemical
T1 construct: plasmid pALK1342 (DSM 15484)
Description: as §1

[9] = biological target: Thielavia arenaria ALKO4197 laccase, purified wild type (TaLcc; TaLcc1) (Canariomyces arenarius, UniProt F6N9E7); assay: biochemical; settings: pH 5
[10] = test system: TaLcc4; assay type: biochemical, Thielavia arenaria; settings: inhibitor 0.5 mM; spectrofotometric ABTS assay
[11] = biological target: T2, Thielavia arenaria ALKO4197 laccase TaLcc2, recombinant, SEQ ID NO: 41 (Canariomyces notabilis, UniProt A0AAN6TC87); assay type: biochemical
T2 construct: plasmid pALK1347 (DSM 15486)
T2 sequence (A0AAN6TC87 entry or part of it): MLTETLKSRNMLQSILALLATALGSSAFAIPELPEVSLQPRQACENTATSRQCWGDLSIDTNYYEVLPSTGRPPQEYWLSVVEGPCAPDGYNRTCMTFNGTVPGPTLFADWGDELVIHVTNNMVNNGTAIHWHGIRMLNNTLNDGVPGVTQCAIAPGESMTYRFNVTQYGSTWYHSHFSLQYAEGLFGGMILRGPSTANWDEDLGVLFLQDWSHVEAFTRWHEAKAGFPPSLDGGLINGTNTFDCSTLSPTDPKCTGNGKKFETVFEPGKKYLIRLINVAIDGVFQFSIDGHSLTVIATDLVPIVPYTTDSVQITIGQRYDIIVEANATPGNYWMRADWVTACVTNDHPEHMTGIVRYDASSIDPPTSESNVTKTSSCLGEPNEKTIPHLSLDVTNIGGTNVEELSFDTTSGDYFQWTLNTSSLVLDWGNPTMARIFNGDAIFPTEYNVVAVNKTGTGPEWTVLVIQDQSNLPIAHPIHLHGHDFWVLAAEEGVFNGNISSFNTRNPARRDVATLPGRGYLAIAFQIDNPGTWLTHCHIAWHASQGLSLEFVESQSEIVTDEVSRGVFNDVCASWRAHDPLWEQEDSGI
Description: as §1

[12] = biological target: T3, Chaetomium thermophilum ALKO4265 laccase CtLcc1, recombinant, SEQ ID NO: 47 (Thermochaetoides thermophila, UniProt G0S3A5); assay type: biochemical
T3 construct: plasmid pALK1304 (DSM 15075)
T3 sequence (G0S3A5 entry or part of it): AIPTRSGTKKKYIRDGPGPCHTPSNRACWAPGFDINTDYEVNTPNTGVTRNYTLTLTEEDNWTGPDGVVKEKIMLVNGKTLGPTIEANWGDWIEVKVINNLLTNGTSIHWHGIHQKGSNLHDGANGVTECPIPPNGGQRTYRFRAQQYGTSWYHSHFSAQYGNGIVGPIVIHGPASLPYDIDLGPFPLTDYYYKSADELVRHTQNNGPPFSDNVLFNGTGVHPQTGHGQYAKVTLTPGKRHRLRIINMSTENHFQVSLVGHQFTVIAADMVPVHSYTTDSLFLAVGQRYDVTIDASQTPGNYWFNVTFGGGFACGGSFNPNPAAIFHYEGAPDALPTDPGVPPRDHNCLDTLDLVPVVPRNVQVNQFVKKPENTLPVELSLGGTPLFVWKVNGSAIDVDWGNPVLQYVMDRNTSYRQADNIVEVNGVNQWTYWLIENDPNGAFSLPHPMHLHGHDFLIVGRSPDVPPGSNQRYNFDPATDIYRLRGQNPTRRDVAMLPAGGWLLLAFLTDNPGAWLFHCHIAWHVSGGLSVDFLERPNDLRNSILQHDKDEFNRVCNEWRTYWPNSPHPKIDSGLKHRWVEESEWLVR
Description: as §1

[13] = test system: Thielavia arenaria ALKO4197 laccase TaLcc4, recombinant, SEQ ID NO: 45; assay: Kinetic parameters of TaLcc4; assay type: biochemical; settings: 40 mM MES buffer, pH 6, 25° C.
Description: (§2) On syringaldazin and DMP 40 mM MES buffer, pH 6 was used. All activity assays were carried out at 25° C. Kinetic parameters were estimated by a nonlinear regression curve fit. The values were compared to those of Melanocarpus albomyces MaL, laccase.

[14] = biological target: T4, Melanocarpus albomyces laccase (MaL) (Melanocarpus albomyces, UniProt Q70KY3); assay: Kinetic parameters of MaL; assay type: biochemical; settings: 40 mM MES buffer, pH 6, 25° C.
T4 sequence (Q70KY3 51-609): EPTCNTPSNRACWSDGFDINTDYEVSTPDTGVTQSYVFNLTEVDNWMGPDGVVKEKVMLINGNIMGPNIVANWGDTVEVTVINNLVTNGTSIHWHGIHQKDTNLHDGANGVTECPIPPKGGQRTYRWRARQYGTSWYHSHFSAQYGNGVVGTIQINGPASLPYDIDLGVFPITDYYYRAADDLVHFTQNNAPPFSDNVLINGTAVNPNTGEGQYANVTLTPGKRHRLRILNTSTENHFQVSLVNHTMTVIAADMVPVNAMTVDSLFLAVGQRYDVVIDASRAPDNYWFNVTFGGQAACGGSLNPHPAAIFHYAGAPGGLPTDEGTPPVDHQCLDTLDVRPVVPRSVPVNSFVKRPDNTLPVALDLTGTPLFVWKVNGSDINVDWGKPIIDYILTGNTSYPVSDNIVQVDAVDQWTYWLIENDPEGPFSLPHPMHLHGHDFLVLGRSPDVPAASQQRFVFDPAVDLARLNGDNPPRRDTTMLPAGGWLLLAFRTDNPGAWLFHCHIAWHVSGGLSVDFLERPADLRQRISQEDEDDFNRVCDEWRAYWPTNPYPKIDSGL
Description: as §2

[15] = test system: Thielavia arenaria ALKO4197 laccase TaLcc3, recombinant, SEQ ID NO: 43; assay: Kinetic parameters of TaLcc3; assay type: biochemical; settings: 40 mM MES buffer, pH 6, 25° C.
Description: as §2

[16] = biological target: T1, Thielavia arenaria ALKO4197 laccase TaLcc1, recombinant, SEQ ID NO: 39; assay type: biochemical; settings: 40 mM MES buffer, pH 6, 25° C.
Description: as §2

[17] = Redox potential, combined Pt-AgCl/KCl microelectrode; assay type: physicochemical; settings: combined Pt-AgCl/KCl microelectrode at pH 5.0
Description: (§3) The purified recombinant Thielavia and Chaetomium laccases were characterized in terms of pH optimum, thermal stability, and pI as described in Example 2. The molecular weight was determined by MALDI-TOF mass spectrometry on a Ultraflex™ time-of-flight instrument (BrukerDaltonics, Germany) as previously described (Palonen et al., 2003). The redox-potentials of the T1 coppers of for CtLcc, and TaLcc2 laccases were determined by photometric copper titration in 0.1 M KH2PO4 (pH 6.0) as described by Xu et al. (1996) using the redox titrant couple K3Fe(CN)6/K4Fe(CN)6. The redox potential of TaLcc1 was determined with a combined Pt—AgCl/KCl microelectrode at pH 5.0 according to Sigoillot et al (2004). The characterization results are collected to Table 14.

[18] = Specific activity towards syringaldazine; assay type: biochemical; settings: 25 mM MES buffer, pH 5.5
Description: (§4) Specific activities of the purified T. arenaria and C. thermophilum laccases were determined towards different laccase substrates.

[19] = Specific activity towards guaiacol; assay type: biochemical; settings: 25 mM MES buffer, pH 5.5
Description: as §4

[20] = Specific activity towards di-methoxy-phenol (DMP); assay type: biochemical; settings: 25 mM MES buffer, pH 5.5
Description: as §4

[21] = Stain removal, grass soiling; set-up: key to Grass L* / Grass a* / Grass b*: CIE L*a*b* color coordinates from reflectance; settings: 60 min, 40° C., pH 6; enzyme 20 nkat/g + mediator 2 mg/g (Mediator only: 0 nkat/g)
Description: (§5) Laccases CtLcc1, TaLcc2, TaLcc4 and Denilite II Base (Example 7) were tested for their ability to remove stains. The following artificially soiled test cloths were used: grass soiling (Art.164, EMPA Testmaterialen, Germany), tea soiling (Art. 167, EMPA Testmaterialen, Germany). The fabric was cut in 5.8×5.8 cm swatches. Laccase treatments were performed in LP-2 Launder Ometer as follows. About 5 g of soiled fabrics were loaded into 1.2 liter containers containing 150 ml Mc Ilvaine's citrate phosphate buffer pH 6 and the containers were temperated. Enzyme with or without the mediator (methyl syringate, DeniLite II Assist, Novozymes) was added as laccase activity units (Example 7). Enzyme was dosed 200 nkat/g and the mediator 10 mg/g on the weight of fabric, except at 40° C. dosages of 20 nkat/g and 2 mg/g were also used. The Launder Ometer was run at 40, 50 or 60° C. and pH 6 for 60 min. After that the swatches were carefully rinsed under running water and in shake flasks containing warm water and dried in the air.
(§6) The stain removal effect was evaluated by measuring the colour as reflectance values using L*a*b* color space coordinates (Example 7). The colour of the swatches was measured before and after the laccase treatment.

[22] = Isoelectric focusing (pI); assay type: physicochemical; settings: pH range 3-9
Description: Molecular weight of the T. arenaria and C. thermophilum laccases were determined on SDS-PAGE according to Laemmli (1970) The gels used in the SDS-PAGE analysis were ready-made 12% Tris HCl gels (BioRad). Protein bands were visualized by staining with Coomassie Brilliant Blue (R 350; Pharmacia) and compared with molecular weight markers (Prestained Protein Marker Broad Range #7708S; New England BioLabs, Beverly, Mass.). The molecular weight of the both laccases was approximately 80 kDa. The isoelectric point of the laccases was determined with isoelectric focusing within the pH range of 3-9 (Pharmalyte IEF, Pharmacia) on a LKB 2117 Multiphor II Electrophoresis System (LKB Pharmacia, Bromma, Sweden) according to the manufacturer's instructions.
as §3

[23] = Stain removal, tea soiling; set-up: key to Tea L* / Tea a* / Tea b*: CIE L*a*b* color coordinates from reflectance; settings: 60 min, 40° C., pH 6; enzyme 20 nkat/g + mediator 2 mg/g (Mediator only: 0 nkat/g)
Description: as §5, §6

[24] = Specific activity towards ABTS; assay type: biochemical; settings: 25 mM succinate buffer pH 4.5, 25° C.
Description: The activity assay was carried out in accordance with the method developed by Niku-Paavola et al. (1988). The sample was diluted with 0.025 M succinate buffer, pH 4.5. […] The activity is expressed as nano katals.
as §4

## [Cl-].[Na+] [NaCl]
[1]
  Inhibition (%) CtL: 0% and 10%
[2]
  Inhibition (%) TaLcc: 35% and 42%
[3]
  Inhibition (%) CtLcc1: 0% and 10%
[4]
  Inhibition (%) TaLcc2: 20% and 30%
[5]
  Inhibition (%) TaLcc1: 0%

## O=C(O)CN(CCN(CC(=O)O)CC(=O)O)CC(=O)O [EDTA]
[6]
  Inhibition (%): 0%
[7]
  Inhibition (%): 2%
[8]
  inhibition at 10000 µM: 5%
[9]
  inhibition at 10000 µM: 0%

## [N-]=[N+]=[N-].[Na+] [NaN3]
[6]
  Inhibition (%): 100%
[10]
  Inhibition (%) TaLcc4: 95%
[1]
  Inhibition (%) CtL: 100%
[11]
  Inhibition (%): 95%
[12]
  Inhibition (%): 100%
[7]
  Inhibition (%): 95%
[3]; inhibitor 0.5 mM
  Inhibition (%) CtLcc1: 100%
[4]; inhibitor 0.5 mM
  Inhibition (%) TaLcc2: 95%
[5]; inhibitor 0.5 mM
  Inhibition (%) TaLcc1: 95%

## COc1cc(C=NN=Cc2cc(OC)c(O)c(OC)c2)cc(OC)c1O [Syringaldazin, syringaldazin]
[13]
  Km: 115 µM
  kcat: 15.5 s⁻¹
[14]
  kcat: 78.5 s⁻¹
[15]
  Km: 4.3 µM
  kcat: 0.2 s⁻¹
[16]
  Km: 4.3 µM
  kcat: 32.33 s⁻¹

B1: TaLcc1: Thielavia arenaria ALKO 4197 laccase, SEQ ID NO: 39, produced in Trichoderma reesei (protein)
chain: MKSWAAAVALMVGILSPHAAAAPPANPVQRDMLQVLEARQSGPTCNTPSNRACWTNGFDINTDYEVSTPNTGRTVAYQLTLTEKENWIGPDGVLKNVVMLVNDKIIGPTIRANWGDNIEVTVINNLKTNGTSMHWHGLRQLGNVFNDGANGVTECPIPPKGGRKTYKFRATQYGTSWYHSHFSAQYGNGVVGTIQIDGPASLPYDIDLGVFPLMDYYYRSADELVHFTQSNGAPPSDNVLFNGTARHPETGAGQWYNVTLTPGKRHRLRIINTSTDNHFQVSLVGHNMTVIATDMVPVNAFTVSSLFLAVGQRYDVTIDANSPVGNYWFNVTFGDGLCGSSNNKFPAAIFRYQGAPATLPTDQGLPVPNHMCLDNLNLTPVVTRSAPVNNFVKRPSNTLGVTLDIGGTPLFVWKVNGSAINVDWGKPILDYVMSGNTSYPVSDNIVQVDAVDQWTYWLIENDPTNPIVSLPHPMHLHGHDFLVLGRSPDELPSAGVRHIFDPAKDLPRLKGNNPVRRDVTMLPAGGWLLLAFKTDNPGAWLFHCHIAWHVSGGLSVDFLERPNDLRTQLNSNAKRADRDDFNRVCREWNAYWPTNPFPKIDSGLRHRFVEESEWMVR
modifications: Thielavia arenaria ALKO4197; (1)..(617) Deduced amino acid sequence of Thielavia arenaria ALKO4197 TaLcc1
[17]
  E^0: 560 mV
[18]
  Specific activity on syringaldazin: 340 nkat/mg
[19]
  Specific activity on guaiacol: 61 nkat/mg
[20]
  Specific activity on DMP: 285 nkat/mg
[21]
  Grass L*: 80.16
  Grass a*: −0.73
  Grass b*: 16.20
[22]
  pI: 5.5-6.9
[23]
  Tea L*: 77.17
  Tea a*: 4.65
  Tea b*: 24.40
[24]
  Specific activity on ABTS: 910 nkat/mg

From patent publication US7732178B2, “Laccase enzymes and their uses” (AB Enzymes Oy, priority 2004, dated 2010)
